Measured values reported in article PMC6211316, “Synthesis and biological evaluation of 3-arylcoumarin derivatives as potential anti-diabetic agents” (Journal of Enzyme Inhibition and Medicinal Chemistry, 2018).

Tests used:
STZ-diabetic mice = assay: Acute hypoglycemic assay in STZ-diabetic mice; format: in vivo; settings: STZ-diabetics mice
In short: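 Mice made diabetic by single i.p. STZ 110 mg/kg in citrate buffer pH 4.5; blood glucose >11 mM after 7 days required. After 12 h fast, compounds at 10, 30, 100 mg/kg given intragastrically in 0.05% Tween-80/saline; blood glucose read at 0, 1.5, 3, 5, 7, 9 h post-dose.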

[1] = tested on: STZ-induced diabetic mice; assay: Daily treatment for 16 days in STZ-induced diabetic mice; format: in vivo
Description: Thereafter, the target compounds 11, 17, 35, and glibenclamide were administered once (9 a.m.) on a daily basis, for a period of 16 days, to STZ-induced diabetic mice which were divided into five groups (A-E). A six group of normal mice (Group F) was used as a control. Groups E (diabetic control) and F received vehicle (0.05% Tween-80 in saline solution) per os for 16 days. Group A received glibenclamide (10 mg/kg of bw daily). Groups B–D received different treatments: B, compound 11 (30 mg/kg of bw daily); C, compound 17 (30 mg/kg of bw daily); D, compound 35 (30 mg/kg of bw daily). All tested materials were suspended in the same vehicle and administered per os daily for 16 days. The animals were housed under standard laboratory conditions and maintained with free access to water and food during all the experiment. Blood glucose concentration on animals of diabetic (Groups A–E) and control group (Group F) was estimated at days 1, 4, 7, 10, 13, and 16. The bw of the animals were measured concomitantly to the blood glucose analyses. All experiments were carried out using six animals per group.

normal mice = assay: Acute hypoglycemic assay in normal mice; format: in vivo
Description: STZ-induced diabetic mice and normal mice were placed in single cages with wire-net floors and deprived of food for 12 h before experimentation but allowed free access to tap water throughout. The compounds (at the doses of 10, 30, and 100 mg/kg of bw) were suspended in 0.05% Tween-80 in saline solution. Glibenclamide (10 mg/kg of bw) was suspended in the same vehicle. The target compounds were freshly prepared immediately before experimentation and administered by the intragastrical route at the doses of 10 ml/kg of bw. Control mice received only the vehicle (0.05% Tween-80 in saline solution) by the same route. Blood glucose levels were measured at 0, 1.5, 3, 5, 7, and 9 h after drugs administration.

[2] = DPPH free radical scavenging; settings: mean ± SD (n = 3)
In short: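 Sample solutions at various concentrations mixed 1:1 with DPPH (0.04 mg/mL) and reacted 30 min at room temperature; absorbance read at 517 nm against ethanol blank, corrected for sample absorbance. Scavenging % calculated versus DPPH alone, triplicate measurements, IC50 derived.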

With Cc1ccccc1-c1cc2ccc(O)cc2oc1=O [Compound 11, 7-Hydroxy-3-(2-methylphenyl)-coumarin] the Blood glucose concentration (STZ-diabetic mice; 10 mg/kg of bw per os, 0h) was 24.9 ± 4.1 mM, the “% Variation of glycemia” value (STZ-diabetic mice; 10 mg/kg of bw per os, 1.5h) was “(−17.27) %” and the Blood glucose concentration (STZ-diabetic mice; 10 mg/kg of bw per os, 1.5h) was 20.6 ± 5.9 mM. For the same compound, the “% Variation of glycemia” value (STZ-diabetic mice; 10 mg/kg of bw per os, 3h) was “(−37.75) %”, the Blood glucose concentration (STZ-diabetic mice; 10 mg/kg of bw per os, 3h) was 15.5 ± 8.5 mM and the “% Variation of glycemia” value (STZ-diabetic mice; 10 mg/kg of bw per os, 5h) was “(−48.59) %”. The Blood glucose concentration (STZ-diabetic mice; 10 mg/kg of bw per os, 5h) was 12.8 ± 10.4 mM, the “% Variation of glycemia” value (STZ-diabetic mice; 10 mg/kg of bw per os, 7h) was “(−54.22) %” and the Blood glucose concentration (STZ-diabetic mice; 10 mg/kg of bw per os, 7h) was 11.4 ± 8.2 mM. The “% Variation of glycemia” value (STZ-diabetic mice; 10 mg/kg of bw per os, 9h) was “(−52.21) %”, the Blood glucose concentration (STZ-diabetic mice; 10 mg/kg of bw per os, 9h) was 11.9 ± 8.5 mM and the Blood glucose concentration (STZ-diabetic mice; 30 mg/kg of bw per os, 0h) was 25.3 ± 6.3 mM. For the same compound, the “% Variation of glycemia” value (STZ-diabetic mice; 30 mg/kg of bw per os, 1.5h) was “(−20.95) %”, the Blood glucose concentration (STZ-diabetic mice; 30 mg/kg of bw per os, 1.5h) was 20.0 ± 6.3 mM and the “% Variation of glycemia” value (STZ-diabetic mice; 30 mg/kg of bw per os, 3h) was “(−34.78) %”. The Blood glucose concentration (STZ-diabetic mice; 30 mg/kg of bw per os, 3h) was 16.5 ± 6.4 mM, the “% Variation of glycemia” value (STZ-diabetic mice; 30 mg/kg of bw per os, 5h) was “(−55.41) %” and the Blood glucose concentration (STZ-diabetic mice; 30 mg/kg of bw per os, 5h) was 11.3 ± 4.0 mM. For the same compound, the “% Variation of glycemia” value (STZ-diabetic mice; 30 mg/kg of bw per os, 7h) was “(−62.40) %”, the Blood glucose concentration (STZ-diabetic mice; 30 mg/kg of bw per os, 7h) was 9.5 ± 3.9 mM and the “% Variation of glycemia” value (STZ-diabetic mice; 30 mg/kg of bw per os, 9h) was “(−68.14) %”. The Blood glucose concentration (STZ-diabetic mice; 30 mg/kg of bw per os, 9h) was 8.1 ± 4.2 mM, the Blood glucose concentration (STZ-diabetic mice; 100 mg/kg of bw per os, 0h) was 23.5 ± 5.4 mM and the “% Variation of glycemia” value (STZ-diabetic mice; 100 mg/kg of bw per os, 1.5h) was “(−21.88) %”. The Blood glucose concentration (STZ-diabetic mice; 100 mg/kg of bw per os, 1.5h) was 18.3 ± 3.9 mM, the “% Variation of glycemia” value (STZ-diabetic mice; 100 mg/kg of bw per os, 3h) was “(−34.89) %” and the Blood glucose concentration (STZ-diabetic mice; 100 mg/kg of bw per os, 3h) was 15.3 ± 3.9 mM. For the same compound, the “% Variation of glycemia” value (STZ-diabetic mice; 100 mg/kg of bw per os, 5h) was “(−52.76) %”, the Blood glucose concentration (STZ-diabetic mice; 100 mg/kg of bw per os, 5h) was 11.1 ± 4.4 mM and the “% Variation of glycemia” value (STZ-diabetic mice; 100 mg/kg of bw per os, 7h) was “(−62.21) %”. The Blood glucose concentration (STZ-diabetic mice; 100 mg/kg of bw per os, 7h) was 8.9 ± 2.8 mM, the “% Variation of glycemia” value (STZ-diabetic mice; 100 mg/kg of bw per os, 9h) was “(−65.27) %” and the Blood glucose concentration (STZ-diabetic mice; 100 mg/kg of bw per os, 9h) was 8.2 ± 2.6 mM. The “bw loss in hyperglycemic mice” value ([1]; 30 mg/kg of bw daily per os, 16 days) was “prevented bw loss”, the “long-term anti-hyperglycemic effect (blood glucose levels)” value ([1]; 30 mg/kg of bw oral, once a day, for 16 days) was “less efficient in decreasing blood glucose levels” and the Blood glucose concentration (normal mice; 10 mg/kg of bw per os, 0h) was 10.0 ± 0.7 mM. The “% Variation of glycemia” value (normal mice; 10 mg/kg of bw per os, 1.5h) was “(−15.27) %”, the Blood glucose concentration (normal mice; 10 mg/kg of bw per os, 1.5h) was 9.1 ± 0.2 mM and the “% Variation of glycemia” value (normal mice; 10 mg/kg of bw per os, 3h) was “(−28.35) %”. For the same compound, the Blood glucose concentration (normal mice; 10 mg/kg of bw per os, 3h) was 7.7 ± 0.6 mM, the “% Variation of glycemia” value (normal mice; 10 mg/kg of bw per os, 5h) was “(−38.01) %” and the Blood glucose concentration (normal mice; 10 mg/kg of bw per os, 5h) was 6.6 ± 0.5 mM. The “% Variation of glycemia” value (normal mice; 10 mg/kg of bw per os, 7h) was “(−47.98) %”, the Blood glucose concentration (normal mice; 10 mg/kg of bw per os, 7h) was 5.6 ± 0.4 mM and the “% Variation of glycemia” value (normal mice; 10 mg/kg of bw per os, 9h) was “(−48.91) %”. For the same compound, the Blood glucose concentration (normal mice; 10 mg/kg of bw per os, 9h) was 5.5 ± 1.2 mM, the Blood glucose concentration (normal mice; 30 mg/kg of bw per os, 0h) was 10.2 ± 1.2 mM and the “% Variation of glycemia” value (normal mice; 30 mg/kg of bw per os, 1.5h) was “(−13.62) %”. The Blood glucose concentration (normal mice; 30 mg/kg of bw per os, 1.5h) was 8.7 ± 1.2 mM, the “% Variation of glycemia” value (normal mice; 30 mg/kg of bw per os, 3h) was “(−30.90) %” and the Blood glucose concentration (normal mice; 30 mg/kg of bw per os, 3h) was 6.9 ± 1.1 mM. The “% Variation of glycemia” value (normal mice; 30 mg/kg of bw per os, 5h) was “(−40.86) %”, the Blood glucose concentration (normal mice; 30 mg/kg of bw per os, 5h) was 5.9 ± 1.1 mM and the “% Variation of glycemia” value (normal mice; 30 mg/kg of bw per os, 7h) was “(−47.84) %”. For the same compound, the Blood glucose concentration (normal mice; 30 mg/kg of bw per os, 7h) was 5.2 ± 0.8 mM, the “% Variation of glycemia” value (normal mice; 30 mg/kg of bw per os, 9h) was “(−49.17) %” and the Blood glucose concentration (normal mice; 30 mg/kg of bw per os, 9h) was 5.1 ± 0.6 mM. For the same compound, the Blood glucose concentration (normal mice; 100 mg/kg of bw per os, 0h) was 10.4 ± 0.7 mM, the “% Variation of glycemia” value (normal mice; 100 mg/kg of bw per os, 1.5h) was “(−31.37) %” and the Blood glucose concentration (normal mice; 100 mg/kg of bw per os, 1.5h) was 7.0 ± 1.1 mM. For the same compound, the “% Variation of glycemia” value (normal mice; 100 mg/kg of bw per os, 3h) was “(−42.16) %”, the Blood glucose concentration (normal mice; 100 mg/kg of bw per os, 3h) was 5.9 ± 0.6 mM and the “% Variation of glycemia” value (normal mice; 100 mg/kg of bw per os, 5h) was “(−52.94) %”. For the same compound, the Blood glucose concentration (normal mice; 100 mg/kg of bw per os, 5h) was 4.8 ± 1.3 mM, the “% Variation of glycemia” value (normal mice; 100 mg/kg of bw per os, 7h) was “(−54.25) %” and the Blood glucose concentration (normal mice; 100 mg/kg of bw per os, 7h) was 4.7 ± 0.4 mM. For the same compound, the “% Variation of glycemia” value (normal mice; 100 mg/kg of bw per os, 9h) was “(−58.17) %”, the Blood glucose concentration (normal mice; 100 mg/kg of bw per os, 9h) was 4.3 ± 0.3 mM and the IC50 [2] was 564.2 ± 5.2 µM.
